Reference: article PMC8730602 (2022)

Tests used:
[1] = system: thiolated cortisol aptamer (DNA, aptamer) CGACCGGTCTGGGGACCCTGTCTGGGTGTGTGGGTAGTAGGTCG; experiment: aptamer field-effect transistor; details: artificial sweat (Table S5), immobilised aptamer; for binding: negligible response at physiological concentrations versus 10 nM cortisol
[2] = system: cortisol aptamer, fluorescein at 5' end (DNA, aptamer) CTCTCGGGACGACCGGTCTGGGGACCCTGTCTGGGTGTGTGGGTAGTAGGTCGTCCC; experiment: competitive structure-switching fluorescence (FAM/dabcyl); details: 154 mM NaCl, 1.058 mM KH2PO4, 2 mM MgCl2; PBS pH 7.3-7.5; dabcyl quencher strand GGTCGTCCCGAGAG displaced, aptamer:quencher 1:5
[3] = system: thiolated serotonin aptamer (DNA, aptamer) CGACTGGTAGGCAGATAGGGGAAGCTGATTCGATGCGTGGGTCG; experiment: aptamer field-effect transistor; details: artificial sweat (Table S5); immobilised aptamer; response over 10 fM to 100 µM

C[C@]12CC[C@H]3[C@@H](CCC4=CC(=O)CC[C@@]43C)[C@@H]1CC[C@@H]2O
binding [1]: no

CC(=O)[C@H]1CC[C@H]2[C@@H]3CCC4=CC(=O)CC[C@]4(C)[C@H]3CC[C@]12C
binding [1]: no

C[C@]12CCC(=O)C=C1CC[C@@H]1[C@@H]2[C@@H](O)C[C@@]2(C)[C@H]1CC[C@]2(O)C(=O)CO
Kd ([1]; on-FET, gate-voltage sweep, apparent): ~ 30 pM | Kd [2]: 500 nM

NCCc1c[nH]c2ccc(O)cc12
binding [1]: no | binding [3]: yes
